The source of these data is patent publication US8846376B2, “Recombinant bacterium capable of removing mercury (II) species, cadmium (II) and copper (II) in presence of other heavy metals from polluted sites, product for the bioremediation, process of obtaining the product and method of bioremediation” (Universidad Tecnica Federico Santa Maria, priority 2009, dated 2014).

Format in all cases: cell-based
The test system of assay [1] is Cupriavidus metallidurans MSR33. Nature of the assay: Minimum inhibitory concentration (MIC) of heavy metals in agar plates, strain MSR33. The following applies: for Improved resistance (fold): MIC of MSR33 relative to CH34; for MIC, strain MSR33: agar plates, Tris mineral salts medium, increasing metal concentrations. The source says:
(§1) The increase of the heavy metal resistance of the novel strain Cupriavidus metallidurans MSR33 was confirmed measuring minimum inhibitory concentration (MIC) of heavy metals in agar plates containing Tris mineral salts medium supplemented with increasing heavy metal concentrations and the organomercurial compound methylmercury.

For assay [2], the system named is Cupriavidus metallidurans CH34. Nature of the assay: Minimum inhibitory concentration (MIC) of heavy metals in agar plates, strain CH34. The following applies: Tris mineral salts medium, increasing metal concentrations.
Source text: as §1

For assay [3], the system named is Cupriavidus metallidurans MSR33. Kind of assay: Growth in Tris mineral salts medium with Hg(II) added at mid-exponential phase, strain MSR33. To be noted: Hg(II) 8 μg/g added at mid-exponential phase, succinate. The procedure:
(§2) To characterize the novel mercury resistance capabilities, the recombinant strain Cupriavidus metallidurans MSR33 was grown in minimal medium supplemented with succinate as sole carbon source and energy and in the presence or absence of mercury. Cupriavidus metallidurans strain CH34 was also grown in these conditions.
(§3) The growth of both strains is similar in absence of Hg (II).

Assay [4] has as its system Cupriavidus metallidurans strain CH34. Kind of assay: Growth in Tris mineral salts medium with Hg(II) added at exponential phase, strain CH34. The following applies: Hg^2+ 8 μg/g added at exponential phase, succinate. As to the method: as §2, §3

As to `[Cd+2]` [Cd^2+], in assay [1], the “Improved resistance (fold)” value turned out to be 1.6 fold and the “MIC, strain MSR33” value was 160 µg/g. In assay [2] (parental strain CH34), the “MIC, strain CH34” value was 100 µg/g.

`[Cu+2]` [Cu^2+]: in assay [1], the “MIC, strain MSR33” value was 240 µg/g. Also, the “MIC, strain CH34” value in assay [2] (parental strain CH34) stood at 240 µg/g.

Consider `[Hg+2]` [Hg^2+], for which, in assay [1], the “Improved resistance (fold)” value was 2.4 fold and the “MIC, strain MSR33” value worked out at 24 µg/g. In addition, in assay [2] (parental strain CH34), the “MIC, strain CH34” value is 10 µg/g. In addition, the “effect on growth of strain MSR33” value in assay [3] was “do not affect the growth”. Moreover, the “effect on growth of strain CH34” value in assay [4] was “no further growth”.

For the compound `[CH3][Hg][Cl]` [MeHg^+, methylmercury], in assay [1], the “Improved resistance (fold)” value is reported as greater than 18.0 fold and the “MIC, strain MSR33” value was 18 µg/g. In addition, in assay [2] (parental strain CH34), the “MIC, strain CH34” value is less than 1 µg/g. In assay [2] (parental strain CH34, listed as CH3Hg^+), the “MIC, strain CH34” value is recorded as “sensitive”.
